Experimental data reported in PMC12434668 (Journal of Medicinal Chemistry, 2025).
Values after ≈ are worked out from the molar mass of the structure shown. Read-outs that look alike come from different tables or passages of the source.

Legend:
K562 cells = assay: In vitro proliferation counterscreen, Mcl-1 insensitive K562; type: cell-based; details: Homo sapiens; Mcl-1 insensitive K562; top concentration tested 12.5 µM
Description: NCI-H929, A427, and K562 cell lines were obtained from ATCC.
(§1) Suspension cells were plated immediately before compound addition. Adherent cell lines were incubated overnight at 37 °C in a tissue culture incubator prior to compound addition. Compounds were added in triplicates using an HP D300e Digital Dispenser (Hewlett-Packard) or manually at the concentrations indicated and total volumes were normalized using DMSO backfill, with final DMSO concentration of 0.5%. Control wells were treated with DMSO only. Following incubation for 72 or 96 h, a Cell Titer-Glo assay was conducted following the manufacturer recommendations (Promega, G9243) and luminescence was measured using a Victor X5 (PerkinElmer) or a Cytation 3 (Biotek) plate reader. % Viability was defined as relative luminescence units (RLU) of each well divided by the RLU of cells on day 0.

[1] = test system: caspase 3/7 in K562 cells; assay: Caspase 3/7 induction assay (Caspase-Glo), K562; type: cell-based; details: compound treatment for 3 h; for EC50: Homo sapiens, K562
Description: (§2) Cells were treated with a 10-point compound titration and incubated at 37 °C for 3 h.

[2] = Mouse pharmacokinetic analyses (i.v. and oral); type: in vivo; details: plasma; for AUC: dose not printed at this place
Description: For PK analysis, mice were administered intravenously or orally with compound formulated in 10% ethanol and 10% Cremophor EL. Compound 13 dosing was also screened with 20% Phosphal IPG, 20% Phosphal MCT, 10% HP-β-CD, and 40% HP-β-CD. Plasma samples were obtained at predefined time points and compound concentrations in plasma were measured by quantitative HPLC–MS/MS using an internal standard. Calibration and quality control samples were prepared using blank plasma from untreated animals. Samples were precipitated with acetonitrile and injected into a HPLC system (Agilent 1200). Separation was performed by gradients of 5 mmol/L ammonium acetate pH 5.0 and acetonitrile with 0.1% formic acid on a Luna C8 reversed-phase column with 2.5 μm particles (Phenomenex). The HPLC was interfaced by ESI operated in positive ionization mode to a triple quadrupole mass spectrometer (6500+ Triple Quad System, SCIEX) operated in multiple reaction monitoring mode. Chromatograms were analyzed with Analyst (SCIEX) and pharmacokinetic parameters were calculated by noncompartmental analysis using proprietary software.

[3] = test system: caspase 3/7 in A427 cells; assay: Caspase 3/7 induction assay (Caspase-Glo), A427; type: cell-based; details: compound treatment for 3 h; for EC50: Homo sapiens, A-427
Description: as §2

Mcl-1 = target: T1, Mcl-1 (Homo sapiens, UniProt Q07820); assay: TR-FRET binding assay (FITC-Bak peptide competition)
T1 construct: Briefly, a previously reported construct was subcloned into an expression vector (pDEST-HisMBP); MBP (from vector pDEST-HisMBP); made in house; host or cells: Escherichia coli BL21 CodonPlus (DE3) RIL
Source text: Protein preparation was described previously. Briefly, a previously reported construct was subcloned into an expression vector (pDEST-HisMBP) expressed in Escherichia coli BL21 CodonPlus (DE3) RIL (Stratagene) and purified through nickel-column and size-exclusion chromatography sequentially.
Mixtures containing vehicle without compound served as a negative control, while mixtures containing no protein served as a positive control. […] Two or more repeats were obtained and average K i values are reported.

A427 cells = assay: In vitro proliferation assay (CellTiter-Glo), A427; type: cell-based; details: Homo sapiens, A-427; A427 cell line; average of at least n = 2, triplicate
Description: (§3) NCI-H929, A427, and K562 cell lines were obtained from ATCC. NCI-H929 cells were cultured in RPMI1640 (ATCC-formulated, Catalog No. 30-2001) + 10% fetal calf serum (FCS, GIBCO BRL, Cat. No. 26140) + 0.05 mM mercaptoethanol. A-427 cells were cultured in RPMI1640 (ATCC-formulated, Catalog No. 30-2001) + 10% fetal calf serum (FCS, GIBCO BRL, Cat. No. 26140). K562 cell lines were cultured in Iscove’s Modified Dulbecco Medium (Gibco-formulated, purchased from Thermo-Fisher, Cat. No. 12440-053) + 10% fetal bovine serum (FBS, Sigma-Aldrich, F2442). All cell lines were cultured at 37 °C with 5% CO2 in a humidified incubator and have been regularly tested negatively for mycoplasm contamination.
as §1, with “Cells were seeded at 750–1500 cells per well (depending on growth kinetics) in 384-well plates (Corning, Catalog No. 3707) or at 3000 cells per well in 96-well plates in the respective growth medium and allowed to settle overnight. Suspension cells” for “Suspension cells”, “day 0. Four parameter sigmoidal dose–response curves were generated and IC50 values were determined using XLFit (IDBS) software (eq 205) or in-house software. Drug combination experiments were performed in 96-well or 384-well format and drug synergy was determined using the BLISS model (PMID: 26171228).” for “day 0.”

NCI-H929 cells = assay: In vitro proliferation assay (CellTiter-Glo), H929; type: cell-based; details: Homo sapiens, H929 cell line, average of at least n = 2, triplicate
Description: as §3
as §1, with “Cells were seeded at 750–1500 cells per well (depending on growth kinetics) in 384-well plates (Corning, Catalog No. 3707) or at 3000 cells per well in 96-well plates in the respective growth medium and allowed to settle overnight. Suspension cells” for “Suspension cells”, “day 0. Four parameter sigmoidal dose–response curves were generated and IC50 values were determined using XLFit (IDBS) software (eq 205) or in-house software. Drug combination experiments were performed in 96-well or 384-well format and drug synergy was determined using the BLISS model (PMID: 26171228).” for “day 0.”

[4] = test system: caspase 3/7 in H929 cells; assay: Caspase 3/7 induction assay (Caspase-Glo), H929; type: cell-based; details: compound treatment for 3 h; for EC50: Homo sapiens, NCI-H929
Description: as §2

[5] = Kinetic aqueous solubility; type: physicochemical; details: aqueous medium, pH 6.8
[6] = iv, dosed at 20 mg/kg, read-out: i.v. mouse CL
[7] = iv, supplementary CSV, unit not given (Table 1: 20 mg/kg, 14 and 16 at 10 mg/kg), read-out: CL
[8] = in the presence of 1% fetal bovine serum, average of at least n = 2, read-out: TRFRET, Mcl-1 Ki
[9] = supplementary CSV, unit inferred, read-out: Ki TRFRET

T1 sequence (Q07820 whole entry): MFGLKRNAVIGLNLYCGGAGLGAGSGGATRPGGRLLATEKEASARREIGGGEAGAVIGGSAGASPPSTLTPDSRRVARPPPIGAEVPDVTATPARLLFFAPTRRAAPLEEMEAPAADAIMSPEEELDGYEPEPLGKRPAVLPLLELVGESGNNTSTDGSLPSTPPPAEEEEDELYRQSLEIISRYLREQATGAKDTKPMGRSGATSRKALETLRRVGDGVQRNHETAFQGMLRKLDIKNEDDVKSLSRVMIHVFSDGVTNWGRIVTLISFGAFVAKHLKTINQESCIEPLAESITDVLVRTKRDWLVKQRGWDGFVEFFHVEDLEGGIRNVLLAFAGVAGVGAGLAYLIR

Structure (SMILES) | EC50 [1] [µM] | clearance [2, 6] [mL/min/kg] | clearance [2, 7] [mL/min/kg] | EC50 [3] [nM] | Ki (Mcl-1; [8]) [nM] | Ki (Mcl-1; [9]) [nM] | GI50 (NCI-H929 cells) [nM] | EC50 [4] [nM] | solubility kinetic [5] [µg/mL] | AUC ([2]; iv, read-out: AUCIV) [µM·h] | AUC ([2]; oral, read-out: AUCPO) [µM·h] | bioavailability ([2]; po, read-out: oral bioavailability (F)) [%] | GI50 (K562 cells) [µM] | K562 Caspase 3/7 fold over vehicle (FoV) [1] [fold] | A427 Caspase 3/7 fold over vehicle (FoV) [3] [fold] | GI50 (A427 cells) [nM] | H929 Caspase 3/7 maximum activity, fold over vehicle (FoV) [4] [fold]
COc1c(OCC2CCOCC2)cc2c3c1cc(C(=O)O)n3CCCOCc1nn(C)cc1-c1c(Cl)ccc3c(CCCOc4cc(C)c(Cl)c(C)c4)c4n(c13)[C@H](C)CN2C4=O [Compound 20, (2^63^4 S a ,1^72^2 R a ,2^4 R)-2^7-Chloro-2^10-(3-(4-chloro-3,5-dimethylphenoxy)propyl)-1^4-methoxy-2^4,3^1-dimethyl-2^1-oxo-1^5-((tetrahydro-2H-pyran-4-yl)methoxy)-2^1,2^2,2^3,2^4-tetrahydro-1^1 H,3^1 H-5-oxa-2(2,6)-pyrazino[1,2-a]indola-1(7,1)-indola-3(4,3)-pyrazolacyclooctaphane-1^2-carboxylic Acid] | > 3.12 | 8.9 | 8.9 | 31 | 0.08 ± 0.02 | – | 31 ± 13 | 23 | – | – | – | – | > 12.5 | 1.3 | 14 | 55 ± 26 | 16
COc1cc2c3c(cc(C(=O)O)n3CCCOCc3ncccc3-c3c(Cl)ccc4c(CCCOc5cc(C)c(Cl)c(C)c5)c5n(c34)[C@H](C)CN2C5=O)c1OC [Compound 21, (2^63^4 S a ,1^72^2 R a ,2^4 R)-2^7-Chloro-2^10-(3-(4-chloro-3,5-dimethylphenoxy)propyl)-1^4,1^5-dimethoxy-2^4-methyl-2^1-oxo-2^1,2^2,2^3,2^4-tetrahydro-1^1 H-5-oxa-2(2,6)-pyrazino[1,2-a]indola-1(7,1)-indola-3(3,2)-pyridinacyclooctaphane-1^2-carboxylic Acid] | > 3.12 | 8 | 8 | 17 | < 0.08 | < 0.02 | 17 ± 8 | 12 | – | – | – | – | > 12.5 | 1.4 | 14 | 39 ± 7 | 16
COc1cc2c3c(cc(C(=O)O)n3CCCOCc3ccncc3-c3c(Cl)ccc4c(CCCOc5cc(C)c(Cl)c(C)c5)c5n(c34)[C@H](C)CN2C5=O)c1OC [Compound 22, (2^63^4 S a ,1^72^2 R a ,2^4 R)-2^7-Chloro-2^10-(3-(4-chloro-3,5-dimethylphenoxy)propyl)-1^4,1^5-dimethoxy-2^4-methyl-2^1-oxo-2^1,2^2,23,24-tetrahydro-11H-5-oxa-2(2,6)-pyrazino[1,2-a]indola-1(7,1)-indola-3(3,4)-pyridinacyclooctaphane-1^2-carboxylic Acid] | – | 3.5 | 3.5 | – | 0.08 ± 0.01 | – | 29 ± 6 | – | 11 (≈ 13.8 µM) | – | – | – | > 12.5 | – | – | 58 ± 4 | –
COc1cc2c3c(cc(C(=O)N(C)C)n3CCCOCc3nn(C)cc3-c3c(Cl)ccc4c(CCCOc5cc(C)c(Cl)c(C)c5)c5n(c34)[C@H](C)CN2C5=O)c1OC [Compound 25, (2^63^4 S a ,1^72^2 R a ,2^4 R)-2^7-chloro-2^10-(3-(4-chloro-3,5-dimethylphenoxy)propyl)-1^4,1^5-dimethoxy-N,N,2^4,3^1-tetramethyl-2^1-oxo-2^1,2^2,2^3,2^4-tetrahydro-1^1 H,3^1 H-5-oxa-2(2,6)-pyrazino[1,2-a]indola-1(7,1)-indola-3(4,3)-pyrazolacyclooctaphane-1^2-carboxamide] | > 3.12 | 6.4 | 6.4 | 24 | < 0.08 | 0.077 | 39 ± 7 | 17 | – | 136 | 14 | 22 | > 12.5 | 1.4 | 14 | 105 ± 24 | 16

The next lines start with results.

EC50 [1] [µM] | clearance [2, 6] [mL/min/kg] | clearance [2, 7] [mL/min/kg] | EC50 [3] [nM] | Ki (Mcl-1; [8]) [nM] | Ki (Mcl-1; [9]) [nM] | GI50 (NCI-H929 cells) [nM] | EC50 [4] [nM] | solubility kinetic [5] [µg/mL] | AUC ([2]; iv, read-out: AUCIV) [µM·h] | AUC ([2]; oral, read-out: AUCPO) [µM·h] | bioavailability ([2]; po, read-out: oral bioavailability (F)) [%] | Structure (SMILES) | GI50 (K562 cells) [µM] | K562 Caspase 3/7 fold over vehicle (FoV) [1] [fold] | A427 Caspase 3/7 fold over vehicle (FoV) [3] [fold] | GI50 (A427 cells) [nM] | H929 Caspase 3/7 maximum activity, fold over vehicle (FoV) [4] [fold]
> 3.12 | 14.8 | 14.8 | 28 | < 0.08 | 0.04 | 35 ± 16 | 36 | – | – | – | – | COc1c(C)cc2c3c1cc(C(=O)O)n3CCCOCc1nn(C)cc1-c1c(Cl)ccc3c(CCCOc4cc(C)c(Cl)c(C)c4)c4n(c13)[C@H](C)CN2C4=O [Compound 18, (2^63^4 S a ,1^72^2 R a ,2^4 R)-2^7-Chloro-2^10-(3-(4-chloro-3,5-dimethylphenoxy)propyl)-1^4-methoxy-1^5,2^4,3^1-trimethyl-2^1-oxo-2^1,2^2,2^3,2^4-tetrahydro-1^1 H,3^1 H-5-oxa-2(2,6)-pyrazino [1,2-a]indola-1(7,1)-indola-3(4,3)-pyrazolacyclooctaphane-1^2-carboxylic Acid] | > 12.5 | 1.4 | 16 | 51 ± 20 | 17
> 3.12 | 19.8 | 19.8 | 13 | < 0.08 | < 0.02 | 10 ± 3 | 11 | – | – | – | – | COCCOc1cc2c3c(cc(C(=O)O)n3CCCOCc3nn(C)cc3-c3c(Cl)ccc4c(CCCOc5cc(C)c(Cl)c(C)c5)c5n(c34)[C@H](C)CN2C5=O)c1OC [Compound 19, (2^63^4 S a ,1^72^2 R a ,2^4 R)-2^7-Chloro-2^10-(3-(4-chloro-3,5-dimethylphenoxy)propyl)-1^4-methoxy-1^5-(2-methoxyethoxy)-2^4,3^1-dimethyl-2^1-oxo-2^1,2^2,2^3,2^4-tetrahydro-1^1 H,3^1 H-5-oxa-2(2,6)-pyrazino[1,2-a]indola-1(7,1)-indola-3(4,3)-pyrazolacyclooctaphane-1^2-carboxylic Acid] | > 11.2 | 1.4 | 14 | 18 ± 6 | 16
